Where two headings read alike, the source gives them in different places.
What was measured:
[1] = tested on: NALM-6 cells; test: In vitro bystander assay, NALM-6 monoculture; format: cell-based
Procedure: (§1) Five-fold serial dilutions of anti-FGFR2 ADCs or isotype control ADCs were prepared in dilution media (Optimem+0.1% BSA) and added to cells at final concentrations ranging from 20 nM to 0.051 pM (concentrations were corrected for the DAR and are dosed based on the effective payload concentration). Five-fold serial dilutions of free payloads were prepared in 100% DMSO, transferred to fresh dilution media, and then added to the cells at a final constant DMSO concentration of 0.2% and final payload concentrations ranging from 20 nM to 0.051 pM. […] Relative light units (RLUs) were measured on an Envision luminometer (Perkin Elmer) and cell viability was expressed as a percentage of the untreated (100% viable) cells. IC50 values were determined using a four-parameter logistic equation over a 10-point dose response curve (GraphPad Prism). The maximum % kill was also determined for each test article as follows: 100−minimum percent viability.
(§2) The ability of the anti-FGFR2 ADCs to induce cytotoxicity in FGFR2 negative cells through release of the payload in FGFR2 positive cells, i.e., bystander activity, was also assessed. […] Cytotoxicity was assessed as described previously for tumor cell lines except that three-fold serial dilutions were performed for all test articles with concentrations ranging from 100 nM to 15.2 pM, and cells were incubated with test articles for 5 days.

[2] = tested on: SNU-16 cells; test: In vitro bystander assay, SNU-16 monoculture; format: cell-based, human
Procedure: as §1, §2

[3] = tested on: SNU-16 + NALM-6 Cells; test: In vitro bystander assay, SNU-16 + NALM-6 coculture (1:1); format: cell-based
Procedure: as §1, §2

[4] = tested on: MFM-223 cells; test: In vitro cytotoxicity assay (CellTiter-Glo 2.0), MFM-223 cells; format: cell-based, human; conditions: for Max % Kill: MFM-223, up to 20 nM
Procedure: (§3) To test the ability of anti-FGFR2 antibody drug conjugates (ADCs) disclosed herein to kill human cell lines, an in vitro cytotoxicity assay was performed. In vitro cytotoxicity of the anti-FGFR2 ADCs, isotype control ADCs, and reference free payloads were evaluated using the CellTiter-Glo 2.0 Assay Kit (Promega, Cat #G9243), in which the quantity of ATP present is used to determine the number of viable cells in culture. The payloads Maytansinoid 1A, Maytansinoid 1A* (a cell permeable equivalent of Maytansinoid 1A), and Tubulysin 1A were tested as free payloads, and the unconjugated antibodies, including comparator antibodies, were used as controls.
(§4) Five-fold serial dilutions of anti-FGFR2 ADCs or isotype control ADCs were prepared in dilution media (Optimem+0.1% BSA) and added to cells at final concentrations ranging from 20 nM to 0.051 pM (concentrations were corrected for the DAR and are dosed based on the effective payload concentration). Five-fold serial dilutions of free payloads were prepared in 100% DMSO, transferred to fresh dilution media, and then added to the cells at a final constant DMSO concentration of 0.2% and final payload concentrations ranging from 20 nM to 0.051 pM. The last well in each dilution series served as an untreated control and included media alone or media plus 0.2% DMSO and was plotted as a continuation of the 5-fold serial dilution. Six days later, 100 uL of CellTiter Glo 2.0 was added to each well, plates were mixed for 2 minutes on an orbital shaker, and plates were incubated at room temperature for 10 minutes. Relative light units (RLUs) were measured on an Envision luminometer (Perkin Elmer) and cell viability was expressed as a percentage of the untreated (100% viable) cells. IC50 values were determined using a four-parameter logistic equation over a 10-point dose response curve (GraphPad Prism). The maximum % kill was also determined for each test article as follows: 100−minimum percent viability.

[5] = tested on: IM-9 cells; test: In vitro cytotoxicity assay (CellTiter-Glo 2.0), IM-9 cells; format: cell-based, human; conditions: for Max % Kill: IM-9, up to 20 nM
Procedure: as §3, §4

[6] = tested on: SNU-16, MFM-223, NCI-H716, or IM-9 cells; test: In vitro cytotoxicity assay, several cell lines; format: cell-based, human; conditions: for IC50: Homo sapiens, read-out: IC50 values
Procedure: as §3
as §4, with “Five-fold” for “Five-fold serial dilutions of anti-FGFR2 ADCs or isotype control ADCs were prepared in dilution media (Optimem+0.1% BSA) and added to cells at final concentrations ranging from 20 nM to 0.051 pM (concentrations were corrected for the DAR and are dosed based on the effective payload concentration). Five-fold”
A comparator anti-FGFR2 ADC that recognizes both FGFR2b and FGFR2c and is conjugated to an auristatin payload (Comp2-BAY-LP) was also tested for cytotoxicity.

[7] = tested on: SNU-16 cells; test: In vitro cytotoxicity assay (CellTiter-Glo 2.0), SNU-16 cells; format: cell-based, human; conditions: for Max % Kill: SNU-16, up to 20 nM
Procedure: as §3, §4

[8] = tested on: NCI-H716 cells; test: In vitro cytotoxicity assay (CellTiter-Glo 2.0), NCI-H716 cells; format: cell-based, human; conditions: for Max % Kill: NCI-H716, up to 20 nM
Procedure: as §3, §4

[9] = minimum tolerated dose below the therapeutic threshold estimated preclinically; trial terminated early; cited from earlier work
[10] = tested on: FGFR2 positive tumors; conditions: cited from earlier work
[11] = molecular target: T1, hFGFR2c.mmh (Homo sapiens, UniProt P21802); test: Biacore surface plasmon resonance binding kinetics to hFGFR2c.mmh; conditions: 25° C.
T1 construct: myc-myc-hexahistidine (MMH) (C); made in house
Procedure: The equilibrium dissociation constants (KD values) for hFGFR2b.mmh binding to anti-FGFR2 antibodies conjugated with Tubulysin (“tubulysin 1ALP”), Auristatin (“auristatin LP1”), or mc-VC-PAB-NMe-C3-May (“maytansinoid 1ALP”) were determined using a real-time surface plasmon resonance biosensor assay on a Biacore 2000 or a Biacore 4000 instrument. The Biacore sensor surface was derivatized by amine coupling with a monoclonal mouse anti-human Fc antibody (REGN2567 or Jackson Cat. No #109-005-098) to capture anti-FGFR2 ADC and parent unmodified antibodies expressed with human constant regions. Biacore binding studies were performed in HBS-EP running buffer (0.01M HEPES pH 7.4, 0.15M NaCl, 3 mM EDTA, 0.05% v/v Surfactant P20). […] Association of hFGFR2b-MMH or hFGFR2c-MMH to each of the captured ADCs and monoclonal antibodies was monitored for 4 minutes. Subsequently, dissociation was monitored for 10 minutes in HBS-EP running buffer. […] Kinetic association (ka) and dissociation (kd) rate constants were determined by fitting the real-time sensorgrams to a 1:1 binding model using Scrubber 2.0c curve fitting software. […] Binding dissociation equilibrium constants (KD) and dissociative half-lives (t½) were calculated from the kinetic rate constants as: […]

[12] = molecular target: T2, hFGFR2b.mmh (Homo sapiens, UniProt P21802); test: Biacore surface plasmon resonance binding kinetics to hFGFR2b.mmh; conditions: 25° C.
T2 construct: myc-myc-hexahistidine (MMH) (C); made in house
Procedure: The Biacore sensor surface was derivatized by amine coupling with a monoclonal mouse anti-human Fc antibody (REGN2567 or Jackson Cat. […] Human FGFR2b and Human FGFR2c were prepared in-house expressing a C-terminal myc-myc-hexahistidine tag ([…] NO: 57; […] NO: 58). […] Association of hFGFR2b-MMH or hFGFR2c-MMH to each of the captured ADCs and monoclonal antibodies was monitored for 4 minutes. Subsequently, dissociation was monitored for 10 minutes in HBS-EP running buffer. Anti-human Fc surface was regenerated by a brief injection of 20 mM H3PO4. All binding kinetic experiments were performed at 25° C. […] All sensorgrams were double referenced by subtracting buffer injection sensorgram signal from the corresponding analyte sensorgram, thereby removing artifacts caused by dissociation of the antibody from the capture surface. […] [formula]

T2 sequence (P21802 with tags, fused parts or gaps isoform P21802-3): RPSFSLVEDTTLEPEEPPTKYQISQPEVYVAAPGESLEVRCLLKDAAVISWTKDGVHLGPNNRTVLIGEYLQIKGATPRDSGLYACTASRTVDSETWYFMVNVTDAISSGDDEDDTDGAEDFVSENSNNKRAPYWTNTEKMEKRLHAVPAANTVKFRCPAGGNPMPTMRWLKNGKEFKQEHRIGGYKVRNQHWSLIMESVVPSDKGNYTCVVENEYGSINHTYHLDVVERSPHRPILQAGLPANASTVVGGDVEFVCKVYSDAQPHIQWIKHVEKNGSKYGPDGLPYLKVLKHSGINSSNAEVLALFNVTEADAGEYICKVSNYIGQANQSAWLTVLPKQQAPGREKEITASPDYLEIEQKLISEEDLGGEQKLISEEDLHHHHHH
T1 sequence (P21802 with tags, fused parts or gaps): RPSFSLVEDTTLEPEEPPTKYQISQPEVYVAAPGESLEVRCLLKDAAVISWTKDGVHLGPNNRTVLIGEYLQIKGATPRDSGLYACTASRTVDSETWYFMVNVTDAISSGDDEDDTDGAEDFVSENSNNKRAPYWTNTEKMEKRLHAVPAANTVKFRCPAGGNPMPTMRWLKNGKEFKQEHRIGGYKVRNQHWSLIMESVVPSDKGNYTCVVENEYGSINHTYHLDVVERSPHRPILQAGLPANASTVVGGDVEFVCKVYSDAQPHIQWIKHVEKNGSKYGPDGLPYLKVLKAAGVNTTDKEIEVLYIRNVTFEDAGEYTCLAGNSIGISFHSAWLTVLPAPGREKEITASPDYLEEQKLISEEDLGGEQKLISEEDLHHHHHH

## C#CCCCON(C(=O)[C@@H](NC(=O)[C@H]1CCCCN1C)[C@@H](C)CC)[C@H](C[C@@H](OC(C)=O)c1nc(C(=O)N[C@@H](Cc2ccc(N)cc2)CC(C)(C)C(=O)O)cs1)C(C)C [Tubulysin 1A]
[1]; Homo sapiens, NALM-6, 120 h
  IC50: 0.0709 nM
[1]; NALM-6 monoculture, 5 days
  Max % Kill: 99.9%
[2]; Homo sapiens, SNU-16, 120 h
  IC50: 0.0184 nM
[2]; SNU-16 monoculture, 5 days
  Max % Kill: 99.3%
[3]; 120 h
  IC50: 0.166 nM
[3]; SNU-16 + NALM-6 1:1 coculture, 5 days
  Max % Kill: 99.5%
[4]; Homo sapiens, MFM-223, 144 h
  IC50: 0.00376 nM
[4]; 6 days
  Max % Kill: 89.7%
[5]; Homo sapiens, IM-9, 144 h
  IC50: 0.0212 nM
[5]; 6 days
  Max % Kill: 94.6%
[6]
  IC50: 0.00369 to 0.0743 nM
[7]; Homo sapiens, SNU-16, 144 h
  IC50: 0.00369 nM
[7]; 6 days
  Max % Kill: 95.1%
[8]; Homo sapiens, NCI-H716, 144 h
  IC50: 0.0743 nM
[8]; 6 days
  Max % Kill: 84.9%

## CNCCC(=O)N(C)[C@@H](C)C(=O)O[C@H]1CC(=O)N(C)c2cc(cc(OC)c2Cl)C/C(C)=C/C=C/[C@@H](OC)[C@@]2(O)C[C@H](OC(=O)N2)[C@@H](C)[C@@H]2O[C@@]12C [maytansinoid 1A]
[4]; Homo sapiens, MFM-223, 144 h, read-out: IC50
  IC50: > 20 nM
[4]; 6 days
  Max % Kill: 18.1%
[5]; Homo sapiens, 144 h, IM-9 (non-FGFR2 expressing), 6 days, read-out: IC50
  IC50: > 20 nM
[5]; 6 days
  Max % Kill: 3.7%
[6]; all tested cells, lower end of range, upper end >20 nM
  IC50: ≥ 4.63 nM
[7]; Homo sapiens, 144 h, SNU-16 (FGFR2b positive), 6 days, read-out: IC50
  IC50: > 20 nM
[7]; 6 days
  Max % Kill: 9.2%
[8]; Homo sapiens, 144 h, NCI-H716 (low FGFR2b, high FGFR2c), 6 days, read-out: IC50
  IC50: > 20 nM
[8]; 6 days
  Max % Kill: 6.4%

B1: Aprutumab ixodotin: FGFR2 antibody conjugated to auristatin (conjugate, chains of the INN, looked up)
VH: EVQLLESGGGLVQPGGSLRLSCAASGFTFSSYAMSWVRQAPGKGLEWVSAISGSGTSTYYADSVKGRFTISRDNSKNTLYLQMNSLRAEDTAVYYCARVRYNWNHGDWFDPWGQGTLVTVSS
VL: QSVLTQPPSASGTPGQRVTISCSGSSSNIGNNYVSWYQQLPGTAPKLLIYENYNRPAGVPDRFSGSKSGTSASLAISGLRSEDEADYYCSSWDDSLNYWVFGGGTKLTVL
modifications: auristatin payload conjugate
notes: FGFR2 antibody conjugated to auristatin
[9]
  tolerability in clinical testing: poorly tolerated

B2: Bemarituzumab: anti-FGFR2 therapy (antibody, chains of the INN, looked up, V domains shown)
VH: QVQLVQSGAEVKKPGSSVKVSCKASGYIFTTYNVHWVRQAPGQGLEWIGSIYPDNGDTSYNQNFKGRATITADKSTSTAYMELSSLRSEDTAVYYCARGDFAYWGQGTLVTVSS
VL: DIQMTQSPSSLSASVGDRVTITCKASQGVSNDVAWYQQKPGKAPKLLIYSASYRYTGVPSRFSGSGSGTDFTFTISSLQPEDIATYYCQQHSTTPYTFGQGTKLEIK
[10]
  treatment outcome: improvements in early survival and advanced disease

B3: Comp1: Comparator (Five Prime Therapeutics): humanized anti-FGFR2b isoform antibody of Catenacci et al. (Bemarituzumab, FPA144) (antibody, chains of the INN, looked up, V domains shown)
VH: QVQLVQSGAEVKKPGSSVKVSCKASGYIFTTYNVHWVRQAPGQGLEWIGSIYPDNGDTSYNQNFKGRATITADKSTSTAYMELSSLRSEDTAVYYCARGDFAYWGQGTLVTVSS
VL: DIQMTQSPSSLSASVGDRVTITCKASQGVSNDVAWYQQKPGKAPKLLIYSASYRYTGVPSRFSGSGSGTDFTFTISSLQPEDIATYYCQQHSTTPYTFGQGTKLEIK
[11]
  Kd: > 30 nM
[11]; antibody captured on anti-human Fc surface
  Antigen Bound (RU): 0.6 RU
[4]; MFM-223 (FGFR2b positive), 6 days, read-out: IC50
  IC50: > 20 nM
[4]; 6 days
  Max % Kill: 0.8%
[5]; IM-9 (non-FGFR2 expressing), 6 days, read-out: IC50
  IC50: > 20 nM
[5]; 6 days
  Max % Kill: 3.8%
[6]; all tested lines, unconjugated antibodies
  EC50: > 20 nM
[7]; SNU-16 (FGFR2b positive), 6 days, read-out: IC50
  IC50: > 20 nM
[7]; 6 days
  Max % Kill: 0.0%
[12]
  Kd: 60.8 nM
  ka: 77400 M⁻¹ s⁻¹
  kd: 0.00471 s⁻¹
[12]; antibody or ADC captured on anti-human Fc surface
  Antigen Bound (RU): 68.3 RU
[12]; dissociative half-life
  t1/2: 2.5 min
[8]; NCI-H716 (low FGFR2b, high FGFR2c), 6 days, read-out: IC50
  IC50: > 20 nM
[8]; 6 days
  Max % Kill: 9.9%

Source: patent US11866502B2, “Anti-FGFR2 antibodies and methods of use thereof” (Regeneron Pharmaceuticals, Inc., priority 2020, dated 2024)
